Laboratory results taken from patent US9145375B2, “Quinazolinone compounds” (PRANA BIOTECHNOLOGY LIMITED, priority 2008, dated 2015).
In brackets after ≈: the same amount, converted by molar mass. Several values for one entry are separate records, joined by “and”; a condition that tells them apart may be missing. Equal values may be shown once. Read-outs that look alike come from different tables or passages of the source.

What was measured:
[1] = PK Studies in the Rat; assay type: in vivo; conditions: for Cmax / Tmax / half-life / AUC(0-t): plasma; for AUC(0-t): read-out: AUC0-24 h (converted)
Experimental: Assay 5. Pharmacokinetic Profile
The pharmacokinetic profile of test compounds is determined by the following assay: • Intravenous infusion of test compound; 2 mg/Kg in a suitable vehicle is […]; […] up to 24 hours. • Plasma concentrations of test compound are determined by suitable analytical method.
[formula] [formula] [formula] • CLtotal=total plasma clearance after IV administration • Vdβ=volume of distribution during the elimination phase after IV administration • BA=oral bioavailability • AUCIV=area under the plasma concentration versus time profile from time zero to infinity after IV administration • AUCoral=area under the plasma concentration versus time profile from time zero to infinity after oral administration • β=terminal elimination rate constant after IV administration Assay 6. Blood Brain Barrier Penetration

[2] = Mouse Plasma Conc.; assay type: in vivo; conditions: given as 'Up to'
[3] = molecular target: T1, CYP2D6 (Homo sapiens, UniProt P10635); test: CYP450 inhibition, specific substrate approach in human liver microsomes: CYP2D6; assay type: in vitro ADME
T1 construct: using a specific substrate approach in human liver microsomes; from tissue; host or cells: human liver microsomes
T1 sequence (P10635 whole entry): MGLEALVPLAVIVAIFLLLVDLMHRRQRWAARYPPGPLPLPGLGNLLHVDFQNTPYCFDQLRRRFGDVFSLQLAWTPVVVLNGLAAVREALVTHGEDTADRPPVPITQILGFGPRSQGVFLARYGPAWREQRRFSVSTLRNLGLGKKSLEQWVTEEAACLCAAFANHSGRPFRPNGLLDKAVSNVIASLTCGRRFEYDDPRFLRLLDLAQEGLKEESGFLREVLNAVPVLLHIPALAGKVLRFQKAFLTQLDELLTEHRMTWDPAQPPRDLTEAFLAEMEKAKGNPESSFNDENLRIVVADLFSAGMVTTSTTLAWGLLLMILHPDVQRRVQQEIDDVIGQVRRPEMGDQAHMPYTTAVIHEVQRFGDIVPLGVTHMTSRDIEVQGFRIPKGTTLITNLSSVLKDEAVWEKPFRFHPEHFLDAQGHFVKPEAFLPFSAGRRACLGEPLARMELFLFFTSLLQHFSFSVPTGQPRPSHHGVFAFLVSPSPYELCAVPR
Experimental: (§1) CYP450 Isoform Inhibition Using a Specific Substrate Approach
(§2) The present study is a “Tier 2” screen to assess potential enzyme inhibition at a test compound concentration of 20 μM using a specific substrate approach in human liver microsomes.
(§3) The substrate specific enzyme inhibition study relies on the formation of a metabolite that is mediated by a specific CYP450 isoform using human liver microsomes. In the current study, the following reactions were monitored to assess interactions with specific CYP450 isoforms. A known inhibitor of each isoform was included in each assay as a positive control. The following IC50 values have been reported in the literature using equivalent assay conditions for each CYP450 isoform:
(§4) The reaction was initiated by the addition of an NADPH-regenerating system and was quenched by the addition of acetonitrile prior to determining the concentration (and apparent rate of formation) of the specific metabolite by LC/MS.
(§5) The IC50 was deemed to be the concentration at which there was a 50% reduction in the amount of metabolite formed, relative to the maximal extent of formation.

[4] = Equilibrium Solubility (pH 2-7); assay type: physicochemical; conditions: for solubility thermodynamic: aqueous buffer, thermodynamic from solid
[5] = Metabolism in hepatocytes (predicted EH), human; assay type: in vitro ADME
[6] = tested on: MPTP induced cell death in the SN; test: Parkinson's disease in vivo: MPTP model; parameters: species or system mouse; conditions: MPTP mice; for Behaviour Pole Test, % (SSV = 0%) / Behaviour Pole Test, value ± SD: 30 mg/kg; for SN cell counts % of SSV / SN cell counts (cells +/− SD): test drug 30 mg/kg daily by oral gavage, several experiments
Excerpt: Parkinson's Disease In Vivo Technique: MPTP
MPTP (1-methyl 4-phenyl 1,2,3,6-tetrahydropyridine) is a chemical that is related to the opioid analgesic drugs. MPTP causes Parkinsonian side-effects. This occurs when MPTP is metabolized into MPP+, which kills neurons in a part of the brain called the substantia nigra. MPP+ interferes with mitochondria metabolism which leads to cell death and causes the build up of free radicals, toxic molecules that contribute further to cell destruction. MPTP has abilities to effect neuronal death in dopaminergic cells. Such effects lead to gross depletion of dopaminergic neurons which has severe implications on cortical control of complex movements.
General Experimental Design
Determining that MPTP Causes Continued Cell Death
Control (non tg) and transgenic mice receive five intraperitoneal injections of MPTP-HCl (23 gauge needle, 20 mg\kg of free base; Sigma, St. Louis, Mo., USA) dissolved in sterile 0.9% saline at 2-h interval in 1 day. Control animals receive five intraperitoneal injections of 0.9% saline. […] 20 C57BL6, 10 control and 10 hA53T tg are used to establish the precise dose of toxin at 2 weeks. Animals are allowed to recover for 1 week, 2 weeks, 1 month, 12, months and 18 months. The animals are killed and the brains removed for histological (stereological) and biochemical analysis.
Determining Whether Test Drug Reduces MPTP Induced Cell Death
Animals are treated as described above. They are treated with test drug 2 days after MPTP injection until death. Test drug is given by oral gavage at a daily dosage of 30 mg/kg. The time of killing the animals is dependant on the analysis of Experiment 1, normally one month or less.
Drugs are administered by oral gavage, at a daily dosage of 30 mg/kg.
Mice are assessed at prior to killing the mice for histological analysis.
Motor coordination and strength are assessed using the rotarod. The rotarod consists of a plastic rotating rod of 3.6 cm axial diameter partitioned by metal disks into five sections to allow the testing of multiple mice simultaneously. Mice are trained on two sessions where the rotation speed is ramped from 0-30 rpm over 5 min and one training session where rotation is a constant 16 rpm for 5 min. Within two days of training, animals are formally assessed on the rotarod rotating at 16 rpm for a maximum of 3 min: the time to fall on this single test is the recorded data point.
The pole is a 700 mm long, 5 mm diameter, wooden rod. The rod is supported at its base and held vertical. The total walking distance for the mice is 550 mm. The time taken for the mouse to descend the pole is measured with a maximum time of 120 s. If a mouse falls, the time is scored as 120 s.

[7] = molecular target: T2, CYP1A2 (Homo sapiens, UniProt P05177); test: CYP450 inhibition, specific substrate approach in human liver microsomes: CYP1A2; assay type: in vitro ADME
T2 construct: using a specific substrate approach in human liver microsomes; from tissue; host or cells: human liver microsomes
T2 sequence (P05177 1-516): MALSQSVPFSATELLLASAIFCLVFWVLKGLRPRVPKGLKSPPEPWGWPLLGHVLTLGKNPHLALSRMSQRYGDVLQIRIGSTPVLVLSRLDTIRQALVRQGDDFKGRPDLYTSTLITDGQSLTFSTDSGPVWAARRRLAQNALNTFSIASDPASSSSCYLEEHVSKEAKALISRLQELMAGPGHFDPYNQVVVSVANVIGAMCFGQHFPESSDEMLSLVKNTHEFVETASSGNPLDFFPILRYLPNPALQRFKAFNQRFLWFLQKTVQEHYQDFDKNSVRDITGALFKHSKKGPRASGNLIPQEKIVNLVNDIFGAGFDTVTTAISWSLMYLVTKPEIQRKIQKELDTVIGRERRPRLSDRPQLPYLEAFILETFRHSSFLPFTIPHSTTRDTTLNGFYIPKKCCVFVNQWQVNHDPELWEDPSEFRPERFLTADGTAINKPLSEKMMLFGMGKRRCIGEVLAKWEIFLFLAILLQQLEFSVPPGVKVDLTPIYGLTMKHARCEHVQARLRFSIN
Experimental: as §1, §2, §3, §4, §5

Structure (SMILES)	Mouse Plasma Conc. [2] [ng/mL]	pH dependence of equilibrium solubility [4]	solubility thermodynamic [4] [µg/mL]	Metabolism (Predicted EH), Hepatocytes: Human [5]	Behaviour Pole Test, % (SSV = 0%) [6] [%]	Behaviour Pole Test, value ± SD [6]	SN cell counts % of SSV [6]	SN cell counts (cells +/− SD) [6]	IC50 [3] [µM]	IC50 [7] [µM]	% dose in urine ([1]; oral 20 mg/Kg) [% dose]	l24 ([1]; oral 20 mg/Kg)	Cmax ([1]; oral 20 mg/Kg) [µM]	Tmax ([1]; oral 20 mg/Kg) [h]	half-life ([1]; oral 20 mg/Kg) [h]	AUC(0-t) ([1]; oral 20 mg/Kg) [µM·h]	also measured
CNCc1nc2c(O)c(Cl)cc(Cl)c2c(=O)n1C [Compound F4161]	≤ 510.4	pH dependent	196 to 746 (≈ 0.68 to 2.59 mM)	0.20	2.55	(2.85 ± 1.63)	28.05%	(2781.33 ± 382.88) cells	–	–	–	–	–	–	–	–	Cmax ([1]; route and dose not given): 6.7 µM; Tmax ([1]; route and dose not given): 0.25 h; half-life ([1]; route and dose not given): 6.7 h; AUC(0-t) ([1]; route and dose not given): 14.1 µM·h; % dose in urine ([1]; route and dose not given): urine = 0.1%; l24 ([1]; route and dose not given): l24 = 0.045-0.15 μM; IC50 ([3]; human, liver microsomes, probe dextromethorphan 3 μM): 40 µM
CN(C)Cc1nc2c(O)c(Cl)cc(Cl)c2c(=O)n1CC1CC1 [Compound F4267]	≤ 1166.6	pH dependent	393 to 1700 (≈ 1.15 to 4.98 mM)	0.44	–	–	53.94% and 53.77%	3331.96 ± 262.97 cells and 4315.11 ± 310.21 cells	7.4	15.3	–	–	–	–	–	–	l24 ([1]; oral 30 mg/Kg): l24 = 0.25-0.5 uM; half-life ([1]; oral 30 mg/Kg): 4.9 h
CCn1c(CN(C)C)nc2c(O)c(Cl)cc(Cl)c2c1=O.Cl [Compound F4268]	≤ 975.9	not pH dependent	3810 to 10200	0.28	−25.38	(3.66 ± 1.87)	40.35% and 74.83% and 64.00%	3797.33 ± 562.78 cells and 3065 ± 387 cells and 3163.87 ± 611.27 cells	> 20	~20	–	–	–	–	–	–	% dose in urine ([1]; oral 30 mg/Kg): 0.1% dose; Rel. Exposure ([1]; oral 30 mg/Kg): 51.9%; l24 ([1]; oral 30 mg/Kg): l24 = 0.02-0.05 uM; Cmax ([1]; oral 30 mg/Kg): 10 µM; Tmax ([1]; oral 30 mg/Kg): 0.333 h; half-life ([1]; oral 30 mg/Kg): 4.3 h
CN(C)Cc1nc2c(O)c(Cl)cc(Cl)c2c(=O)n1C [Compound F4269, 5,7-Dichloro-2-(dimethylamino)methyl-8-hydroxy-3-methylquinazolin-4(3H)-one]	≤ 492.1	pH dependent	166 to 2670 (≈ 0.549 to 8.84 mM)	0.38	–	–	26.76%	3557.33 ± 556.55 cells	> 30	24.1	0.1	l24 = 0.01-0.03 uM	3.3	0.375	5.6	5.5	–
CCN(CC)Cc1nc2c(O)c(Cl)cc(Cl)c2c(=O)n1CC1CC1 [Compound F4385]	≤ 9074	pH dependent	683 to 1660 (≈ 1.84 to 4.49 mM)	0.55	–	–	31.49%	3690.00 ± 919.10 cells	5.1	13.4	0.05	l24 = 0.5-1.5 u uM	7.3	0.5	14.7	52.1	–
C#CCN(C)Cc1nc2c(O)c(Cl)cc(Cl)c2c(=O)n1CC1CC1 [Compound F4387]	≤ 942.7	–	–	–	–	–	–	–	–	–	–	–	–	–	–	–	–
Br.CCn1c(CNC)nc2c(O)c(Cl)cc(Cl)c2c1=O [Compound F4486]	≤ 1115	–	–	–	38.46	(1.81 ± 0.80)	24.11%	2647.97 ± 814.44 cells	–	–	–	–	–	–	–	–	–
CCNCc1nc2c(O)c(Cl)cc(Cl)c2c(=O)n1CC [Compound F4495]	≤ 8935	not pH dependent	2230 to 4730 (≈ 7.04 to 14.9 mM)	0.22	18.32	(2.26 ± 0.82)	45.45% and 50.33%	–	9.5	13.7	0.18	l24 = 0.05-0.3 uM	56.7	0.5	4.1	87	–
Br.CCNCc1nc2c(O)c(Cl)cc(Cl)c2c(=O)n1C [Compound F4496]	≤ 3330.8	not pH dependent	224 to 1500	0.43	38.61	(1.79 ± 1.13)	–	–	> 30	22	0.19	l24= 0.02-0.1 uM	7.61	0.75	6.1	17.8	–
